# According to patent publication US20220331341A1, “TREATMENT COMPRISING THE USE OF FXR AGONISTS” (Novartis AG, priority 2019, published 2022):
# Experiments:
# [1] = test system: HF/NASH mice (hepatic oxidative stress and mitochondrial function); experiment: Dietary HF/NASH mouse model, tropifexor treatment for the last 12 of 20 weeks; type: in vivo, C57BL/6J mice
# Source text: Molecular, structural and functional analysis was applied to assess oxidative stress and mitochondria function in NASH model.
# Similar to human disease, transition from steatosis to NASH with fibrosis in NASH mice is associated with mitochondrial dysfunction characterized by structural and functional alterations. Decline in hepatic mitochondrial function is manifested in HF/NASH mice by decreased activities of tricarboxylic acid (TCA) cycle and electron transport chain (ETC) as well as diminished ATP production. This is accompanied by oxidative damage and depletion of antioxidant enzymes. […] This was manifested by a marked increase in mitochondrial function with concomitant restoration of oxidative balance associated with increased antioxidant defenses and decreased oxidative stress.
# [2] = test system: patients with biopsy-proven NASH and fibrosis stages 2-3; experiment: FLIGHT-FXR (NCT02855164) Part C interim analysis at week 12; type: in vivo, human; conditions: for ALT, LS mean absolute change from baseline to Week 12 (SE) / Body weight, LS mean absolute change from baseline to Week 12 (SE) / GGT, LS mean absolute change from baseline to Week 12 (SE): full analysis set
# Source text: Prespecified endpoints assessed at week 12 included overall safety and changes in alanine aminotransferase (ALT), hepatic fat fraction (HFF), gamma glutamyl transferase (GGT), and body weight.
# NASH patients = experiment: Study CLJN452A2202 Parts A and B, 12 weeks; type: in vivo, human
compound,measurement,setting,value
"O=C(O)c1cc(F)c2nc(N3C4CC[C@H]3CC(OCc3c(-c5ccccc5OC(F)(F)F)noc3C3CC3)C4)sc2c1 (stereo partly drawn) [Tropifexor, 2-[(1R,3r,5S)-3-({5-cyclopropyl-3-[2-(trifluoromethoxy)phenyl]-1,2-oxazol-4-yl}methoxy)-8-azabicyclo[3.2.1]octan-8-yl]-4-fluoro-1,3-benzothiazole-6-carboxylic acid]",Liver SOD activity,[1]; 0.3 mg/kg,fully restored
same,GPx activity in serum and liver,[1]; 0.9 mg/kg,restored
same,Liver SOD activity,[1]; 0.9 mg/kg,increased above the levels observed in ND mice
same,Cell death (apoptosis) in liver: cleaved-caspase 3 staining and phospho-p38 protein levels,[1]; 20 weeks HF/NASH diet,attenuated cell death in a dose dependent manner
same,ATP synthesis,[1]; HF/NASH livers,improving
same,Citrate synthase (CS) activity,[1]; HF/NASH livers,dose-dependently restored
same,Complex I and Complex II activities,[1]; HF/NASH livers,restoring
same,Content of all five respiratory chain (OXPHOS) proteins,"[1]; HF/NASH livers, 0.1 mg/kg",full restoration
same,"Expression of mitochondrial biogenesis genes (PGC-1a, Nrf1, Tfam)",[1]; HF/NASH mice,did not lead to changes
same,"Levels of oxidative stress in HF/NASH livers (MDA, 4-HNE, mtDNA)",[1]; liver,markedly decreased
same,Antioxidant gene expression (GPx and GST superfamilies),[1]; liver transcriptome,induced
same,"Expression of Gpx2, Gst family",[1]; liver transcriptome,markedly increased their expression beyond the ND levels
same,"Expression of Gpx3, Gpx8",[1]; liver transcriptome,restored expression of investigated genes to ND levels
same,Serum levels of γ-glutamyltranspeptidase (GGT),[1]; serum,decreased
same,Frequency of serious adverse events,[2]; 140 μg and 200 μg vs placebo,low and comparable across groups
same,Low density lipoprotein-cholesterol (LDL-C),"[2]; 140 μg and 200 μg, 12 weeks",dose-related increase
same,Share of patients with pruritus whose events were of mild (Grade 1) severity,[2]; both Tropifexor groups (140 μg and 200 μg),> 60%
same,Treatment discontinuation rate due to pruritus,[2]; tropifexor 140 μg,2%
same,"ALT, LS mean absolute change from baseline to Week 12 (SE)",[2]; tropifexor 140 μg once daily,−20.1 (4.57) U/L
same,"Body weight, LS mean absolute change from baseline to Week 12 (SE)",[2]; tropifexor 140 μg once daily,−2.46 (0.38) kg
same,"GGT, LS mean absolute change from baseline to Week 12 (SE)",[2]; tropifexor 140 μg once daily,−39.2 (3.70) U/L
same,Prespecified endpoints at week 12,[2]; tropifexor 200 μg,met
same,Treatment discontinuation rate due to pruritus,[2]; tropifexor 200 μg,6%
same,"ALT, LS mean absolute change from baseline to Week 12 (SE)",[2]; tropifexor 200 μg once daily,−23.6 (4.48) U/L
same,"Body weight, LS mean absolute change from baseline to Week 12 (SE)",[2]; tropifexor 200 μg once daily,−3.20 (0.37) kg
same,"GGT, LS mean absolute change from baseline to Week 12 (SE)",[2]; tropifexor 200 μg once daily,−40.9 (3.62) U/L
same,Biologic activity (GGT),NASH patients; 10 to 90 μg daily for 12 weeks,clear dose response
same,Target engagement (FGF19),NASH patients; 10 to 90 μg daily for 12 weeks,clear dose response
same,ALT and hepatic fat fraction compared to placebo,"NASH patients; all doses (10, 30, 60 and 90 μg), 12 weeks",reduced
same,Tolerability,NASH patients; up to 90 μg daily,generally well tolerated
